Assay results taken from ChEMBL document CHEMBL5465560, “Selectivity Literature for EUbOPEN Chemogenomic Library” (2024).

Legend:
[1] = biological target: T1, Serine/threonine-protein kinase Nek2 (Homo sapiens) (UniProt P51955); experiment: Selectivity interaction (Kinase panel (DSF assay)) EUB0001559a NEK2
T1 sequence (whole entry): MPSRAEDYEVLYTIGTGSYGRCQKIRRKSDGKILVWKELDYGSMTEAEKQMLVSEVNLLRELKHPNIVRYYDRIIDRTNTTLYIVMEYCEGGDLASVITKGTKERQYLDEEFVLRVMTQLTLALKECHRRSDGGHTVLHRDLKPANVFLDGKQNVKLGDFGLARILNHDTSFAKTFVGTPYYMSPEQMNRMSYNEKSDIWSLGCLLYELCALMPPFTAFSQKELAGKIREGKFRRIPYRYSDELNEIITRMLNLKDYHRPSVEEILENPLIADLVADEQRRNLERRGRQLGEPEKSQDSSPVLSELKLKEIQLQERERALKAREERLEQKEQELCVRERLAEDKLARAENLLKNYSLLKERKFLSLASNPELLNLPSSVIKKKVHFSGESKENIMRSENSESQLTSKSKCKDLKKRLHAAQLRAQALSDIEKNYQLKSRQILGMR

[2] = biological target: T2, Ephrin type-B receptor 2 (Homo sapiens) (UniProt P29323); experiment: Selectivity interaction (KinomeScan (DiscoverX)) EUB0000655a EPHB2; conditions: at 10 µM
T2 sequence (whole entry): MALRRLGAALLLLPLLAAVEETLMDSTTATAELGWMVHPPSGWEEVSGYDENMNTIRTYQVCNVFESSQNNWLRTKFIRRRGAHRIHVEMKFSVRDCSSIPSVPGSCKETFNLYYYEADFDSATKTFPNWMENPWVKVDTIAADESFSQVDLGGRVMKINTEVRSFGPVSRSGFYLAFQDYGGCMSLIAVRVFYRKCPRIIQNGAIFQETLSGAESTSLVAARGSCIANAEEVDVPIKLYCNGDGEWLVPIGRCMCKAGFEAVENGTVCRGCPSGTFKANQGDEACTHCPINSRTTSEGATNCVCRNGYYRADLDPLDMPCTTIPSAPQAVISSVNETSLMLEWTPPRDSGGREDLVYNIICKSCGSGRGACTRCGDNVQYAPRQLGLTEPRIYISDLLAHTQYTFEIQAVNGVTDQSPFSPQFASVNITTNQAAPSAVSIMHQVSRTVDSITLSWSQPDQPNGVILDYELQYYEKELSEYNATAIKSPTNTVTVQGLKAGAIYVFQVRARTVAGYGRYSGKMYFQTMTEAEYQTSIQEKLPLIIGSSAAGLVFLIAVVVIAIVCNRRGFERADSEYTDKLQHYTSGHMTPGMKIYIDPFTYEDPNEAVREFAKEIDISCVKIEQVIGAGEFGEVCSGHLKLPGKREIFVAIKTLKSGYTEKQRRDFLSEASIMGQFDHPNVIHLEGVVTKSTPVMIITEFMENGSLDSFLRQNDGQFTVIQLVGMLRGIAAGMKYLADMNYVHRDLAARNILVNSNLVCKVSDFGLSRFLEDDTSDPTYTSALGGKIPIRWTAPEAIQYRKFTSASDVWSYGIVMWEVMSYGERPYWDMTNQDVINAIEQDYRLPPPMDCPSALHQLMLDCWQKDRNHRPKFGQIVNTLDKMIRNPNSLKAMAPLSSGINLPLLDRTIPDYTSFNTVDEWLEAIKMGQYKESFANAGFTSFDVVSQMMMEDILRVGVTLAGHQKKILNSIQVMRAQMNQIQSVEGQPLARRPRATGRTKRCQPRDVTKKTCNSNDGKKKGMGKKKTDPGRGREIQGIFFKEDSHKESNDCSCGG

[3] = biological target: T3, Ephrin type-A receptor 6 (Homo sapiens) (UniProt Q9UF33); conditions: at 10 µM
T3 sequence (whole entry): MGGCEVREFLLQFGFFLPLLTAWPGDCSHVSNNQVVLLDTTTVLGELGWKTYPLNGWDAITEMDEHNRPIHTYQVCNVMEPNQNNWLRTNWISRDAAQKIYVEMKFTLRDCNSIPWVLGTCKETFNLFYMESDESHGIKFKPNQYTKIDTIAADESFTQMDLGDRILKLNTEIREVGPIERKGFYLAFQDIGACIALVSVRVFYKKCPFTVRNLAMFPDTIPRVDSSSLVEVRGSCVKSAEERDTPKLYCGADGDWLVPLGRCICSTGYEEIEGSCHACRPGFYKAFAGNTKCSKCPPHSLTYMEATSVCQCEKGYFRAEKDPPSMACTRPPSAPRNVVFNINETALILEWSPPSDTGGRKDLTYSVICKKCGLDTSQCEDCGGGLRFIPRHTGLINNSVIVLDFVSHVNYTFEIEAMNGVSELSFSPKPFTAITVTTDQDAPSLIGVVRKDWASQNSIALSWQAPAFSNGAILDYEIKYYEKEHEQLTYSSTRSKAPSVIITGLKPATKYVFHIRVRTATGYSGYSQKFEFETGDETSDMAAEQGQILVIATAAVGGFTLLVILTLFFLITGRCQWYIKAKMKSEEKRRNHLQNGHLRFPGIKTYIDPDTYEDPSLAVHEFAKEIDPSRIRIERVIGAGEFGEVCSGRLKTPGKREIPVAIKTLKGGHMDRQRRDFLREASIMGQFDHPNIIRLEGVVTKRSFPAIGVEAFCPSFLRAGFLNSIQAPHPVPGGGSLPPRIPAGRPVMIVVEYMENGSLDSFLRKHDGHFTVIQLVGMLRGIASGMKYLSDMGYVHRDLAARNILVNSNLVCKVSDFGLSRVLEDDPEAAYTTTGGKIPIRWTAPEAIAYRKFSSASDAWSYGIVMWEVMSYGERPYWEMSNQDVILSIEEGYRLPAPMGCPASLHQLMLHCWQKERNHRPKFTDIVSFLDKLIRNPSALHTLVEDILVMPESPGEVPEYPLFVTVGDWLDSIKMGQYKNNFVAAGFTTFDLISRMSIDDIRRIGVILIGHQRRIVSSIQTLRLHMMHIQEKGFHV

CN(C(=O)c1cnn2cccnc12)c1cc2c(cc1N1CCOCC1)C(=O)N(C[C@@H](F)C(C)(C)O)C2
dTM [1]: 2.1 K

CN(C)CCOc1ccc(-c2nc(-c3ccncc3)c(-c3ccc4c(c3)CC/C4=N\O)[nH]2)cc1
% of control [2]: 98%

CCN(CC)CCCCNc1ncc2cc(-c3cc(OC)cc(OC)c3)c(NC(=O)NC(C)(C)C)nc2n1
% of control [3]: 100%
